US20200407717A1, “METHODS OF MODULATING ANTISENSE ACTIVITY” (Ionis Pharmaceuticals, Inc., priority 2018, published 2020)
e = 2'-O-(2-methoxyethyl) (MOE); d = 2'-deoxy (DNA)

Target: EGFR (Homo sapiens, UniProt P00533)
Assay: Competitive NanoBRET binding assay
Design: made in house; host or cells: HEK293 cells
Conditions: Competitive BRET vs 10 nM AF594-labeled 766636; Table 6
Method: NanoBRET (bioluminescence resonance energy transfer) binding assays were performed as described in Vickers and Crooke. PLOS One, 11(8), (2016). An EGFR NLuc construct was prepared by first amplifying human EGFR from the full length cDNA clone (Origene RC217223) with forward PCR primer 5′-[…]-3′ (SEQ ID NO: 1) and reverse PCR primer 5′-[…] (SEQ ID NO: 2). The amplified product was ligated into the NheI and XhoI sites of the NanoLuc expression vector pFC32K Nluc CMV-Neo (Promega). Protein was expressed in HEK293 cells and isolated using Protein G magnetic beads. For competitive BRET, the Alexafluor594-labeled modified oligonucleotide 766636 was diluted into water in opaque white 96-well plates at 10 nM and competed with 0.1-10,000 nM of unlabeled modified oligonucleotide. […] of 2× binding buffer containing […] (relative luminescence units) beads/well was added and plates were shaken for 10 minutes at room temperature. Nanoluciferase activity and BRET were measured in a Glowmax Discover plate reader and EC50 values, shown in the tables below, were calculated using GraphPad Prism. For direct BRET, Alexafluor594 modified nucleotides were diluted at 0.1-10,000 nM and experiments were performed as described above.

Sequence	EC50 [nM]
AGGAAGGAAGCTGGCGATCT (sugars from the 5' end e5 d10 e5, all phosphorothioate, methylation of C not given here) [compound 25690]	1450
GGCATATGCAGATAATGTTC (sugars from the 5' end e5 d10 e5, all phosphorothioate, methylation of C not given here) [compound 395254]	1240
